Test [1] addresses T1, His-HAO1 (recombinant glycolate oxidase, 2-hydroxyacid oxidase) (Homo sapiens, UniProt Q9UJM8).
T1 sequence (Q9UJM8 1-370): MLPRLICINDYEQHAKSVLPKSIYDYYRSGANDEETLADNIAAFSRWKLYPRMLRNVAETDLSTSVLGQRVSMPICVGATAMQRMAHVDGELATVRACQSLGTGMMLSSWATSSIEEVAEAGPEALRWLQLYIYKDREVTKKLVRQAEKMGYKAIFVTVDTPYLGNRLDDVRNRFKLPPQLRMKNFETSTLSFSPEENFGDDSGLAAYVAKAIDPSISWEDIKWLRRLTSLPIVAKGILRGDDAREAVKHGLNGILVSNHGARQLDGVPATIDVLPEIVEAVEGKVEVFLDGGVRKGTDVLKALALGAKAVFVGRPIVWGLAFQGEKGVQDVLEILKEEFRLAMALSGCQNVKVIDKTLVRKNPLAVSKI
As to the kind of experiment: Amplex Red activity assay. Format: biochemical.

The target in test [2] is T1, His-HAO1 (recombinant glycolate oxidase, 2-hydroxyacid oxidase). In words: SPR. Type of test: binding.
Test [3] has the same target. As to the kind of experiment: DSF thermal stabilisation, SYPRO Orange. Type of test: binding.
The target of another test is T2, HAO1-HiBiT (Homo sapiens, UniProt Q9UJM8).
T2 sequence (Q9UJM8 1-370): T1 sequence (Q9UJM8 1-370)
In words: SplitLuc CETSA in HEK293T lysate, LgBiT luminescence. Type of test: biochemical.

By IC50 is commonly meant the concentration that inhibits the measured activity by half. Broadly, the Kd is the equilibrium constant for the complex coming apart. A word on the EC50: it is the midpoint of the concentration-response curve.

Turning to `NS(=O)(=O)c1ccc(Cc2c(-c3ccc(F)c(-c4ccc(Oc5nn[nH]c5C(=O)O)cc4)c3)nn(-c3nc(C(=O)O)cs3)c2CC2CC2)cc1F` [compound 1, Compound 1], in test [1], the IC50 is 0.0251 µM. Moreover, the Kd in test [2] is 0.0039 µM. The EC50 in test [3] was 5.01 µM; on HAO1-HiBiT it was 2.2 µM.
Take `O=C(O)c1nn[nH]c1Oc1ccc(-c2ccc(C3CC(F)(F)C3)cc2)cc1` [compound 2, Compound 2]: the IC50 in test [1] was 0.02 µM. In addition, the Kd in test [2] is 0.0044 µM. The EC50 in test [3] is 3.98 µM; on HAO1-HiBiT, 1.8 µM.

The record behind these values is publication doi:10.1101/2024.06.26.600887v2 (biorxiv, 2024).
